Measurements as given in BindingDB's records for patent US20240368170 (Genentech, 2024).

Molecular target: Mitogen-activated protein kinase kinase kinase kinase 1 (Homo sapiens, UniProt Q92918)
Experiment: Lantha Binding Assay
Method: For the binding assay, 4 μL 2×HPK1 and Eu-anti-GST antibody were added to each well of the assay plate using a Multidrop reagent dispenser. The solutions were incubated in a 23 C incubator for 1 h. […] The solutions were again incubated in a 23° C. incubator for 1 h.

Mitogen-activated protein kinase kinase kinase kinase 1, sequence (Q92918 whole entry): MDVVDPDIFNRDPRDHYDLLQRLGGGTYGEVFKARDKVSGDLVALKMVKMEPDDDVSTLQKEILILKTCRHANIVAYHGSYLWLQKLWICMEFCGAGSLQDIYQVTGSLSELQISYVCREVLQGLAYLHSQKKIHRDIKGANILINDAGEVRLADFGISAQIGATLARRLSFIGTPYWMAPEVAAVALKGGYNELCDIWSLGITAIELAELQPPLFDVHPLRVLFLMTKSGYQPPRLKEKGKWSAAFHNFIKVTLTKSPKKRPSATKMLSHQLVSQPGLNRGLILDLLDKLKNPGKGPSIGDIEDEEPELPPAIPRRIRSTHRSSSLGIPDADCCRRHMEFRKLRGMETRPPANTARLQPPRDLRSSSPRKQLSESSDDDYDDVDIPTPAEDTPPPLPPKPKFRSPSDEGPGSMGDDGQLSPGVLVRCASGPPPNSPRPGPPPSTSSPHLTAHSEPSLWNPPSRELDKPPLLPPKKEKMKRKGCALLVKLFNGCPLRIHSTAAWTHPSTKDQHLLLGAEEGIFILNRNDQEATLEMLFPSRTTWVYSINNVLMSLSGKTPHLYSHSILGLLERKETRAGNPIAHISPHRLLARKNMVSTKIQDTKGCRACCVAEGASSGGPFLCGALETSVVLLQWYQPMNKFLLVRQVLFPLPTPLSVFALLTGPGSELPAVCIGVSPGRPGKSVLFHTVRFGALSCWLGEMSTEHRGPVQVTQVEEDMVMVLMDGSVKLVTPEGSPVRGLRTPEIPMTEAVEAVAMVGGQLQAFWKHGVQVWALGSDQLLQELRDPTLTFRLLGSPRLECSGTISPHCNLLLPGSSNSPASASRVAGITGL

Ki [nM]	Structure (SMILES)
84	CCn1cc(-c2cc(N)c3nnc(NC(=O)[C@@H]4C[C@@H]4F)cc3c2)cn1 [US20240368170, Compound 1a]
21	CC(C)NC(=O)Nc1cc2cc(-c3cnn(C)c3)cc(N)c2nn1 [US20240368170, Compound 8]
